Measured values reported in patent publication US20240226115A1, “AXL INHIBITOR COMPOUNDS” (ARCUS BIOSCIENCES, INC., priority 2021, published 2024).

molecular target: T1, recombinant human MER (Homo sapiens, UniProt Q12866); assay: HTRF KinEASE-TK biochemical potency, MER; conditions: 1 nM MER, 700 μM ATP
T1 construct: purchased Invitrogen
T1 sequence (Q12866 21-999): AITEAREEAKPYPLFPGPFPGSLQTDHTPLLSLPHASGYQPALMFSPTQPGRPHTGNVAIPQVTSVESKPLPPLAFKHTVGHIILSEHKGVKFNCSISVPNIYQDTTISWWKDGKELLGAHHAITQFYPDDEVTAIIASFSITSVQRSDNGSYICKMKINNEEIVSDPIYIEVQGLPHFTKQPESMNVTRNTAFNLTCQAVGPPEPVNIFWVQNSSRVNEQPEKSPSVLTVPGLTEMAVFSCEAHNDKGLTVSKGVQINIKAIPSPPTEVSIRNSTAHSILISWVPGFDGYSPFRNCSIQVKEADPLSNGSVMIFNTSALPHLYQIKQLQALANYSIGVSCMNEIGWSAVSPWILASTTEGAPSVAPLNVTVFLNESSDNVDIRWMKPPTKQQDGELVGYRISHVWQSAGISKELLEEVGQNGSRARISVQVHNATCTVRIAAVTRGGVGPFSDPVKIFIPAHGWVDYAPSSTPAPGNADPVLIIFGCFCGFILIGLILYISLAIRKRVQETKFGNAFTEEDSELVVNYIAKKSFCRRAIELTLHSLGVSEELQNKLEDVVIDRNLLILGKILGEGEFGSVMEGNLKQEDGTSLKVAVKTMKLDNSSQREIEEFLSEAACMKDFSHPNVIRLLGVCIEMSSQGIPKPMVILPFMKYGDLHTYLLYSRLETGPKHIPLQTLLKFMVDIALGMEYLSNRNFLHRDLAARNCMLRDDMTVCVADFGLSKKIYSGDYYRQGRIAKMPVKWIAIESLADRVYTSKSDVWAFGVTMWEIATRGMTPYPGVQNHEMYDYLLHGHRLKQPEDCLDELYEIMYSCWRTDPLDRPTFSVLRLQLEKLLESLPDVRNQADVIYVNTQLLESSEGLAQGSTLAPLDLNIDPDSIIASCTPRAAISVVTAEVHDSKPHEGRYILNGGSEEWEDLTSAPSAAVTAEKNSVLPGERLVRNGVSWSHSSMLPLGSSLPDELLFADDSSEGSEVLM
Description: Purified recombinant human AXL, TYRO3 and MER proteins were purchased from Invitrogen™. 10 nM AXL, 2 nM TYRO3 or MER were incubated with varying concentrations of compounds in 50 mM HEPES, pH 7.4, 10 mM MgCl2, 0.01% BSA, 1 mM DTT and 2% DMSO in a total volume of 20 μl in a 384-well microplate (Corning™ #3640) at RT for 1 h. The AXL, TYRO3 and MER enzymatic reaction was initiated by transferring 10 μl of enzyme and compound mixture into 10 μl of 1.6 μM TK Substrate-biotin (HTRF® KinEASE-TK kit, Cisbio) and 1400 μM ATP pre-incubated in 50 mM HEPES, pH 7.4, 10 mM MgCl2, 0.01% BSA, 1 mM DTT in a 384-well microplate (Corning™ #3640) at RT, giving the final reaction conditions: 5 nM AXL, 1 nM TYRO3 or MER, 800 nM TK Substrate-biotin and 700 μM ATP in 50 mM HEPES, pH 7.4, 10 mM MgCl2, 0.01% BSA, 1 mM DTT and 1% DMSO with varying concentrations of compounds. Following 2 h incubation at RT, the AXL, TYRO3 and MER enzymatic reaction was stopped by transfer of 10 μl of reaction into 10 μl of detection mix (400 nM Streptavidin-XL665, 200-fold dilution TK Antibody-Cryptate and detection buffer, HTRF® KinEASE-TK kit, Cisbio) in a white 384-well microplate (Perkin Elmer, OptiPlate 384). After 1 h incubation at RT, the plate was put into a plate reader (Evision) to read at 665/620 nm (acceptor/donor) for HTRF. The value of the DMSO blank (MIN inhibition=100% activity) was used as a negative control. The positive control was established by adding 5 μl of enzyme and DMSO mixture into 10 μl of detection mix followed by addition of 5 μl of TK Substrate-biotin and ATP mixture (MAX inhibition=0% activity). To calculate the percent activity, Equation 1 was used. Ratio665/620 is the value at a given compound concentration: […]

IC50 | Structure (SMILES)
< 100 nM | O=C1NCCOc2cc(-c3n[nH]c4ncc(-c5ccc6c(c5)CCC(N5CCCC5)C6)cc34)ccc21 (stereo not drawn) [Example 2, 8-{5-[6-(Pyrrolidin-1-yl)-5,6,7,8-tetrahydronaphthalen-2-yl]-1H-pyrazolo[3,4-b]pyridin-3-yl}-2,3,4,5-tetrahydro-1,4-benzoxazepin-5-one]
< 100 nM | O=C1NCCOc2cc(-c3n[nH]c4ncc(-c5ccc6c(c5)CC(N5CCCC5)CC6)cc34)ccc21 (stereo not drawn) [Example 3, 8-{5-[7-(Pyrrolidin-1-yl)-5,6,7,8-tetrahydronaphthalen-2-yl]-1H-pyrazolo[3,4-b]pyridin-3-yl}-2,3,4,5-tetrahydro-1,4-benzoxazepin-5-one]
< 100 nM | O=C1NCCOc2cc(-c3n[nH]c4ncc(-c5ccc6c(c5)CCN(C5CCCC5)CC6)cc34)ccc21 [Example 7, 8-[5-(3-Cyclopentyl-2,3,4,5-tetrahydro-1H-3-benzazepin-7-yl)-1H-pyrazolo[3,4-b]pyridin-3-yl]-2,3,4,5-tetrahydro-1,4-benzoxazepin-5-one]
< 100 nM | O=C1NCCOc2cc(-c3n[nH]c4ncc(-c5ccc6c(c5)CCN(C5CCCC5)C6)cc34)ccc21 [Example 9, 8-(5-(2-Cyclopentyl-1,2,3,4-tetrahydroisoquinolin-6-yl)-1H-pyrazolo[3,4-b]pyridin-3-yl)-3,4-dihydrobenzo[f][1,4]oxazepin-5(2H)-one]
< 100 nM | O=C1NCCOc2cc(-c3n[nH]c4ncc(-c5ccc6c(c5)CCN(C5COC5)CC6)cc34)ccc21 [Example 11, 8-(5-(3-(Oxetan-3-yl)-2,3,4,5-tetrahydro-1H-benzo[d]azepin-7-yl)-1H-pyrazolo[3,4-b]pyridin-3-yl)-3,4-dihydrobenzo[f][1,4]oxazepin-5(2H)-one]
100 to 1000 nM | O=C1NCCOc2cc(-c3n[nH]c4ncc(-c5ccc6c(c5)CCN(C5COC5)C6)cc34)ccc21 [Example 12, 8-(5-(2-(Oxetan-3-yl)-1,2,3,4-tetrahydroisoquinolin-6-yl)-1H-pyrazolo[3,4-b]pyridin-3-yl)-3,4-dihydrobenzo[f][1,4]oxazepin-5(2H)-one]
< 100 nM | O=C1NCCOc2cc(-c3n[nH]c4ncc(-c5ccc6c(c5)CCN(C(=O)C5CC5)CC6)cc34)ccc21 [Example 17, 8-[5-(3-Cyclopropanecarbonyl-2,3,4,5-tetrahydro-1H-3-benzazepin-7-yl)-1H-pyrazolo[3,4-b]pyridin-3-yl]-2,3,4,5-tetrahydro-1,4-benzoxazepin-5-one]
100 to 1000 nM | O=C1NCCOc2cc(-c3n[nH]c4ncc(-c5ccc6c(c5)CCN(C5CC5)C6)cc34)ccc21 [Example 21, 8-(5-(2-Cyclopropyl-1,2,3,4-tetrahydroisoquinolin-6-yl)-1H-pyrazolo[3,4-b]pyridin-3-yl)-3,4-dihydrobenzo[f][1,4]oxazepin-5(2H)-one]
< 100 nM | CC1(N2CCCC2)CCc2ccc(-c3cnc4[nH]nc(-c5ccc6c(c5)OCCNC6=O)c4c3)cc2CC1 (stereo not drawn) [Example 22, 8-{5-[7-Methyl-7-(pyrrolidin-1-yl)-6,7,8,9-tetrahydro-5H-benzo[7]annulen-2-yl]-1H-pyrazolo[3,4-b]pyridin-3-yl}-2,3,4,5-tetrahydro-1,4-benzoxazepin-5-one]

Further lines, the compound ahead of its results:

Structure (SMILES) | IC50
O=C1NCCOc2cc(-c3n[nH]c4ncc(-c5ccc6c(c5)CCC(N5CCCC5)CC6)cc34)ccc21 (racemic) [Example 1, 8-{5-[7-(Pyrrolidin-1-yl)-6,7,8,9-tetrahydro-5H-benzo[7]annulen-2-yl]-1H-pyrazolo[3,4-b]pyridin-3-yl}-2,3,4,5-tetrahydro-1,4-benzoxazepin-5-one] | < 100 nM
O=C1NCCOc2cc(-c3n[nH]c4ncc(-c5ccc6c(c5)CC[C@H](N5CCCC5)CC6)cc34)ccc21 (single isomer, unassigned) [Example 56] | 100 to 1000 nM
O=C1NCCOc2cc(-c3n[nH]c4ncc(-c5ccc6c(c5)CC[C@@H](N5CCCC5)CC6)cc34)ccc21 (single isomer, unassigned) [Example 57] | < 100 nM
O=C1NCCOc2cc(-c3n[nH]c4ncc(-c5ccc6c(c5)CCC(N[C@H]5CCOC5)C6)cc34)ccc21 (stereo partly drawn) [Example 4, 8-[5-(6-{[(3S)—Oxolan-3-yl]amino}-5,6,7,8-tetrahydronaphthalen-2-yl)-1H-pyrazolo[3,4-b]pyridin-3-yl]-2,3,4,5-tetrahydro-1,4-benzoxazepin-5-one] | < 100 nM
O=C1NCCOc2cc(-c3n[nH]c4ncc(-c5ccc6c(c5)CCC(N[C@@H]5CCOC5)C6)cc34)ccc21 (stereo partly drawn) [Example 5, 8-[5-(6-{[(3R)—Oxolan-3-yl]amino}-5,6,7,8-tetrahydronaphthalen-2-yl)-1H-pyrazolo[3,4-b]pyridin-3-yl]-2,3,4,5-tetrahydro-1,4-benzoxazepin-5-one] | < 100 nM
C[C@@H]1CCCN1C1CCc2ccc(-c3cnc4[nH]nc(-c5cc(F)c6c(c5)OCCNC6=O)c4c3)cc2CC1 (stereo partly drawn) [Example 6, 6-Fluoro-8-(5-{7-[(2R)-2-methylpyrrolidin-1-yl]-6,7,8,9-tetrahydro-5H-benzo[7]annulen-2-yl}-1H-pyrazolo[3,4-b]pyridin-3-yl)-2,3,4,5-tetrahydro-1,4-benzoxazepin-5-one] | < 100 nM
O=C1NCCOc2cc(-c3n[nH]c4ncc(-c5ccc6c(c5)CN(C5CCCC5)CC6)cc34)ccc21 [Example 10, 8-(5-(2-Cyclopentyl-1,2,3,4-tetrahydroisoquinolin-7-yl)-1H-pyrazolo[3,4-b]pyridin-3-yl)-3,4-dihydrobenzo[f][1,4]oxazepin-5(2H)-one] | < 100 nM
COCCN1CCc2cc(-c3cnc4[nH]nc(-c5ccc6c(c5)OCCNC6=O)c4c3)ccc2C1 [Example 13, 8-(5-(2-(2-Methoxyethyl)-1,2,3,4-tetrahydroisoquinolin-6-yl)-1H-pyrazolo[3,4-b]pyridin-3-yl)-3,4-dihydrobenzo[f][1,4]oxazepin-5(2H)-one] | 100 to 1000 nM
COCCN1CCc2ccc(-c3cnc4[nH]nc(-c5ccc6c(c5)OCCNC6=O)c4c3)cc2CC1 [Example 15, 8-(5-(3-(2-Methoxyethyl)-2,3,4,5-tetrahydro-1H-benzo[d]azepin-7-yl)-1H-pyrazolo[3,4-b]pyridin-3-yl)-3,4-dihydrobenzo[f][1,4]oxazepin-5(2H)-one] | < 100 nM
CC(C)C(=O)N1CCc2ccc(-c3cnc4[nH]nc(-c5ccc6c(c5)OCCNC6=O)c4c3)cc2CC1 [Example 16, 8-{5-[3-(2-Methylpropanoyl)-2,3,4,5-tetrahydro-1H-3-benzazepin-7-yl]-1H-pyrazolo[3,4-b]pyridin-3-yl}-2,3,4,5-tetrahydro-1,4-benzoxazepin-5-one] | 100 to 1000 nM
CC(C)(O)C(=O)N1CCc2ccc(-c3cnc4[nH]nc(-c5ccc6c(c5)OCCNC6=O)c4c3)cc2CC1 [Example 19, 8-(5-(3-(2-Hydroxy-2-methylpropanoyl)-2,3,4,5-tetrahydro-1H-benzo[d]azepin-7-yl)-1H-pyrazolo[3,4-b]pyridin-3-yl)-3,4-dihydrobenzo[f][1,4]oxazepin-5(2H)-one] | 100 to 1000 nM
O=C1NCCOc2cc(-c3n[nH]c4ncc(-c5ccc6c(c5)CCN(C5CC5)CC6)cc34)ccc21 [Example 20, 8-(5-(3-Cyclopropyl-2,3,4,5-tetrahydro-1H-benzo[d]azepin-7-yl)-1H-pyrazolo[3,4-b]pyridin-3-yl)-3,4-dihydrobenzo[f][1,4]oxazepin-5(2H)-one] | 100 to 1000 nM
